The text below walks through data of article PMC9867837 (Cancer letters, 2022).

The structures appear in SMILES notation. ≈ marks a conversion by molar mass, not a printed value. Where “and” joins values, the source holds several entries; their conditions need not be identical. Equal values may be shown once. Read-outs that look alike come from different tables or passages of the source.

One data set deals with HCC1937 cells. The experiment in a line: CyQuant viable cell number assay, HCC1937. Format: cell-based, human. Conditions: read-out: IC50 viable cell numbers, HCC1937. As for the experimental part: (§1) CyQuant assay was performed to evaluate compounds as previously reported. Details are presented in Supplementary Information, “Methods”. […]
(§2) 1.2.6. Cell viability assays
(§3) CyQuant assay was performed to evaluate compounds as previously reported [1 -3] . Briefly, cells (5 x 10^3 per well, 100 µl) in culture in 96-well plates were treated once with 0 -10 µM concentrations of H120, H105, […]
(§4) concentration of H182 for 6 h and then treated with 0- 100 nM docetaxel or 0-20 µM cisplatin for a total of 72 h. Viable cell numbers were assessed by a CyQuant cell proliferation kit according to the manufacturer’s instructions (Thermo/Life Technologies Corp, Carlsbad, CA). Viable cell numbers were normalized to that of DMSO (control)-treated samples. […]

A further data set in a line: Solubility. The format is physicochemical. As for the experimental part:
Solubility, human (HLM) and mouse liver microsomal (MLM), and plasma stability studies were performed by Eurofins Cerep Panlabs and Eurofin Discovery Services (www.eurofins.com/PharmaDiscovery), while protein binding studies were performed by Sanford Burnham Prebys Chemical Biology & Drug Discovery Core using standard protocols.

The target in data set [1] is Stat5:Stat5 DNA-binding activity. The experiment in a line: EMSA of Stat5:Stat5 DNA-binding activity in nuclear extracts of EGF-stimulated NIH3T3/hEGFR. Format: biochemical, mouse. Conditions: Fig. 1C, MGFe probe, 30 min. As for the experimental part:
These studies were carried out as previously described using the ^32P-labeled oligonucleotide probes, hSIE (high affinity sis-inducible element from the c-fos gene, m67 variant, 5^′-[…]) that binds Stat1 and Stat3 [11, 12] and the mammary gland factor element (MGFe) from the bovine β–casein gene promoter (sense strand, 5^′-[…]) that binds Stat5 and Stat1 [11, 12]. Details are presented in Supplementary Information, “Methods”. […]
(§5) min, prior to incubation with the radiolabeled probe for 30 min at 30 °C and subjecting to EMSA analysis.
(§6) In another case, the nuclear extract was pre-incubated with the radiolabeled probe for 30 min at 30 °C prior to incubation with increasing concentration of H182 at room temperature for 30 min and subjecting to EMSA analysis. Bands corresponding to Stats DNA- binding activities were scanned and quantified using ImageJ and plotted as a percentage of control (vehicle) against the concentration of the inhibitor, from which the IC50 values were derived .
(Mobility shift assays separate free from complexed probe on a gel.)

The target in the next data set is T1, pY705Stat3 (Homo sapiens, UniProt P40763).
T1 construct: endogenous in cells
T1 sequence (P40763 whole entry): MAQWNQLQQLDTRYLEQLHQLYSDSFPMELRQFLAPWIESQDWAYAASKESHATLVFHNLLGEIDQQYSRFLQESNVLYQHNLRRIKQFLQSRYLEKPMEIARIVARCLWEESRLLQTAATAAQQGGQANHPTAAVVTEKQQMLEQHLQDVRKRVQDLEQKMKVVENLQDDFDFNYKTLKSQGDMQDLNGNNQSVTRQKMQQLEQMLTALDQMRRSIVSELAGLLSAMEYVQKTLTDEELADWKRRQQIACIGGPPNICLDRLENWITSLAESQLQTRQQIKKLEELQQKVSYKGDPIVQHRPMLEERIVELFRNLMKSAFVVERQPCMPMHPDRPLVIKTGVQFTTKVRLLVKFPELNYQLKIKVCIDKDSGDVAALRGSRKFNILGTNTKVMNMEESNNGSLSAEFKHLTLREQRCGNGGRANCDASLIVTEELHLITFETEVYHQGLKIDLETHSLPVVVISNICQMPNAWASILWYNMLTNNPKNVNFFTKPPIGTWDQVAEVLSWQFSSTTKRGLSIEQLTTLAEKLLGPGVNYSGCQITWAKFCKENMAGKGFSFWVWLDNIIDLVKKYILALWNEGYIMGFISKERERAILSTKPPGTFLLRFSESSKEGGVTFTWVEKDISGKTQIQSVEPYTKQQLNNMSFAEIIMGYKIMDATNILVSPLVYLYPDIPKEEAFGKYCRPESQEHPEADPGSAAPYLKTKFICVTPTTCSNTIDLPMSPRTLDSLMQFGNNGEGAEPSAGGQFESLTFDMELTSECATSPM
The experiment in a line: Western blotting for pY705Stat3 in treated breast cancer cells. The format is cell-based. Conditions: for Effect on constitutive Stat3 Tyr phosphorylation (pYStat3) in cells: MDA-MB-468 and MDA-MB-231, 0–5 μM, 1 or 2 h. As for the experimental part:
These studies were performed as previously described. Details are presented in Supplementary Information, “Methods”.
Nuclear extracts and whole-cell lysates were prepared, and samples of equal total protein were subjected to Stat3 DNA-binding assay/EMSA analysis using the hSIE probe, or to SDS/PAGE and Western blotting analysis for pY705Stat3, Stat3, or GAPDH [11, 12]. […] Depending on the concentration (1, 3, or 5 μM), the inhibitory effects of the azetidine compounds were observed relatively early, at 30–60 min, on both Stat3 DNA-binding activity (Fig. 4C) and Tyr phosphorylation (Fig. 4D, pY705Stat3).
During confluence of cultured cells, the cell-to-cell adhesion and cadherin engagement trigger increased Tyr705Stat3 phosphorylation in a variety of cell lines. To investigate the impact of cell-to-cell adhesion and cadherin engagement, parallel studies were conducted in which cells in culture were untreated or treated with 1 or 2 μM H182 for 0.5–48 h, and whole-cell lysates prepared and immunoprobed for pTyr705Stat3. […] After 48-h incubation, the cell confluency of the DMSO-treated samples reached to around 60% for MDA-MB-468 cells and 80% for MDA-MB-231 cells. […] In the untreated cells, Stat3 (red punctate) staining was predominantly localized in the nucleus of the tumor cells, with weak presence in the cytoplasm (Fig. 4F, 0, Stat3, red merged with blue DAPI nuclear staining). […] Total Stat3 protein levels in all of these studies were unchanged, and GAPDH, tubulin or β-actin levels show equal protein loading. The percent changes induced by H182 treatment on Stat3 DNA-binding activity and phosphorylation in the treated cells are shown.
These studies were performed as previously described [1 -3] . Briefly, snap-frozen tumor tissues or cultured cells treated or not were harvested and whole-cell or tissue lysates were prepared in radioimmunoprecipitation assay (RIPA) buffer. Samples of equal total protein were subjected to SDS - PAGE and immunoblotting analysis. Primary antibodies used were anti- Stat3, pY705-Stat3, pS727Stat3, […]
Akt, pT202/Y204Erk1/2 (p44/42), Erk1/2, PARP , caspase 3, c-Myc, survivin, VEGF, β-actin, α/β-tubulin, and GAPDH. For the studies of the effects of cell density and confluence on pY705Stat3, cells were seeded […] in culture dishes. The next day, cells were untreated (DMSO control, […]
0.1%) or treated at the same time with 1 or 2 µM H182, allowed to incubate for the indicated time and then harvested for whole-cell lysate preparation and SDS -PAGE / immunoblotting analy sis. After 48-h incubation, the cell confluency of the DMSO-treated samples reached to around 60% for MDA-MB -468 cells and 80% for MDA- MB-231 cells. […]
(In general: In western blotting, separated proteins are transferred to a membrane and probed.)

The next data set concerns MDA-MB-231 cells. The data set is described as follows: CyQuant viable cell number assay, MDA-MB-231. The format is cell-based, human. Conditions: Homo sapiens, MDA-MB-231, read-out: IC50 viable cell numbers, MDA-MB-231; CyQuant, 72 h. As for the experimental part:
as §1, §2, §3, §4

For data set [2], the target named is T2, Stat3:Stat3 DNA-binding activity (Mus musculus, UniProt P42227).
T2 construct: endogenous in cells; host or cells: NIH3T3/v-Src fibroblasts; EGF-stimulated NIH3T3/hEGFR fibroblasts (nuclear extracts)
T2 sequence (P42227 2-770 limits assumed): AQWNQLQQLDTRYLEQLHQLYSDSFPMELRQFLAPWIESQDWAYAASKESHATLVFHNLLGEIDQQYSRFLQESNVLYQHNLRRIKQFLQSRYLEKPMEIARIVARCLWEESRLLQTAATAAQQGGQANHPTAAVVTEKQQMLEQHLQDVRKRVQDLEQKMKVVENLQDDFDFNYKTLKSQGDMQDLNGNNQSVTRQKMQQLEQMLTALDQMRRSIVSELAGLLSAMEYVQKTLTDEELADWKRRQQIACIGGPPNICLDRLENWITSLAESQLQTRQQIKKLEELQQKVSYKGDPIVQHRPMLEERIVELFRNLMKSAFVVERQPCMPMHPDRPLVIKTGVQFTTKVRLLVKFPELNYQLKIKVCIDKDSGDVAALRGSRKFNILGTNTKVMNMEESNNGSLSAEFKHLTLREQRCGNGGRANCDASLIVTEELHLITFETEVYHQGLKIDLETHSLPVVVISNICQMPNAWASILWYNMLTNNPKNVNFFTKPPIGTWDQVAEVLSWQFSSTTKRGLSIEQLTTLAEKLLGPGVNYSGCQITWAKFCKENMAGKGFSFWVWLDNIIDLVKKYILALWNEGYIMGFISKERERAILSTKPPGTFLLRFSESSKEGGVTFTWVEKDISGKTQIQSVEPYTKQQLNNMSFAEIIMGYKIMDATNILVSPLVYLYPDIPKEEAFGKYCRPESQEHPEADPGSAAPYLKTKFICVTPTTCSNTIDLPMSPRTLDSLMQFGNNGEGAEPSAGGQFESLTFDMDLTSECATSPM
The experiment in a line: EMSA of Stat3:Stat3 DNA-binding activity in nuclear extracts. Format: biochemical. Conditions: for Stat3:Stat3 % of Con, pre-formed Stat3:DNA complex: extract pre-incubated with hSIE probe 30 min. As for the experimental part:
Details are presented in Supplementary Information, “Methods”. […]
as §5, §6

Setting [3] is: aqueous buffer, PBS pH 7.4, read-out: Solubility PBS pH 7.4.
The mark [4] stands for this setting: 2 μM H182, incubation time 3 min.
Where [5] appears, read: 2 μM H182, incubation time 10 min.
Setting [6] is: 2 μM H182, incubation time 30 min.
Setting [7] is: 2 μM H182, incubation time 60 min.

On to `O=C([C@H]1CCN1S(=O)(=O)c1c(F)c(F)c(F)c(F)c1F)N(Cc1ccc(C2CCCCC2)cn1)c1ccc2c(=O)[nH]cnc2c1` [Compound H172], for which the IC50 with HCC1937 cells (72 h) is 4.8 µM; with HCC1937 cells (Homo sapiens, HCC1937, 72 h), 3.6 to 4.3 µM; in data set [1], 20 µM; in the data set on MDA-MB-231 cells, 3.3 µM. For the same molecule, the solubility in “Solubility” (setting [3]) was 6.3 µg/mL (≈ 9.73 µM). Moreover, in the data set “Solubility” (simulated gastric fluid), the “Solubility SGF” value was 104 µg/mL (≈ 161 µM). Moreover, the “Solubility SIF” value in “Solubility” (simulated intestinal fluid) is 123 µg/mL (≈ 190 µM). Further, at pY705Stat3, the “Effect on constitutive Stat3 Tyr phosphorylation (pYStat3) in cells” value is given as “dose-dependent inhibition”.

With `O=C([C@H]1CCN1S(=O)(=O)c1c(F)c(F)c(F)c(F)c1F)N(Cc1ccc(C2CCCCC2)cn1)c1ccc2c(=O)[nH]ncc2c1` [Compound H182], the IC50 with HCC1937 cells (72 h) is 3 µM; in the data set on HCC1937 cells (Homo sapiens, HCC1937, 72 h), 3.6 to 4.3 µM; in data set [2] (EMSA, NIH3T3/v-Src nuclear extracts, 30-min incubation at room temperature before hSIE probe, read-out: Stat3:Stat3 IC50), 0.66 ± 0.1 µM; in data set [2] (EMSA, incubation time 10 min before hSIE probe, read-out: Stat3:Stat3 IC50), 1.47 µM; in data set [2] (EMSA, incubation time 60 min before hSIE probe, read-out: Stat3:Stat3 IC50), 0.38 µM; in data set [2] (Fig. 1C, extracts of EGF-stimulated NIH3T3/hEGFR, hSIE probe, 30 min, read-out: IC50 Stat3:Stat3), 0.7 µM. Besides, the IC50 in data set [2] (range over the named compounds and incubation times, read-out: IC50 Stat3 DNA-binding activity in vitro (summary range)) was 0.38 to 0.98 µM; in data set [1] it was 19.1 µM; in the data set with MDA-MB-231 cells it was 1 µM. For the same molecule, the solubility in the data set “Solubility” (setting [3]) was 3 µg/mL (≈ 4.63 µM); in the data set “Solubility” (simulated gastric fluid, read-out: Solubility SGF), 130 µg/mL and 132 µg/mL; in the data set “Solubility” (simulated intestinal fluid, fassgf or other biorelevant, read-out: Solubility SIF), 128 µg/mL (≈ 198 µM). Further, the “Stat3:Stat3 Intensity (% of Con)” value was 100 % of Con in data set [2] (2 μM H182, incubation time 0 min); 84 % of Con in data set [2] (setting [4]); 65 % of Con in data set [2] (setting [5]); 14 % of Con in data set [2] (setting [6]); 0.1 % of Con in data set [2] (setting [7]). The inhibition at 2 µM in data set [2] (setting [4]) was 16%; in data set [2] (setting [5]), 35%; in data set [2] (setting [6]), 86%; in data set [2] (setting [7]) it was 99.9%. Also, the “Stat3:Stat3 % of Con, pre-formed Stat3:DNA complex” value is on record as 101 % of Con in data set [2] (then 1 μM H182 30 min); 101 % of Con in data set [2] (then 3 μM H182 30 min); 100 % of Con in data set [2] (then 10 μM H182 30 min); 98 % of Con in data set [2] (then 30 μM H182 30 min); 86 % of Con in data set [2] (then 100 μM H182 30 min). For the same molecule, the “Inhibition of the pre-formed Stat3:DNA complex” value in data set [2] (up to 100 μM H182) is listed as “unable to inhibit the pre-formed Stat3:DNA complex”. Further, the “Duration of inhibition of Stat3 activation (pY705Stat3)” value at pY705Stat3 (3 μM H182) was “sustained inhibition of Stat3 activation for up to 48 h”. The “Effect on constitutive Stat3 Tyr phosphorylation (pYStat3) in cells” value at pY705Stat3 is listed as “dose-dependent inhibition”. For the same molecule, the “Effect on EGF-induced pY705Stat3” value on pY705Stat3 (MDA-MB-468 cells, 1–3 μM H182) is “inhibited EGF-induced pY705Stat3 in MDA-MB-468 cells in a dose-dependent manner”.

One may read the IC50 as the concentration at which inhibition is half-maximal. The solubility is how much of the substance goes into solution per volume. As usually defined, the inhibition is the change of the read-out against control, counted positive when it falls. A high value points to strong suppression.
